From patent US7955815B2, “Two-photon fluorescent probes for acidic vesicles in live cells and tissue and method of imaging acidic vesicles in live cells and tissue using the same” (Korea University Industrial & Academic Collaboration …, priority 2007, dated 2011)
Values after ≈ are worked out from the molar mass of the structure shown.

Assays:
[1] = tested on: acidic vesicles in hippocampal slices; experiment: TPEF imaging of rat hippocampal slices
Description: Slices were prepared from the hippocampi of a 2-day-old rat. The hippocampal slices were cut into a thickness of 400 μm. The slices were incubated with the probes AH2 and AL1 (10-20 μM).
The slices were then washed and transferred to glass-bottomed dishes. The TPEF images of the slices were obtained.
40 TPM images were accumulated along the z-direction at the depth of ˜100-250 μm with magnification 10× (6b).

[2] = Fluorescence as a function of pH in universal buffer; pKa value analysis; format: physicochemical; conditions: for fluorescence intensity change with pH: pH gradually decreased; for pKa: universal buffer solution, from fluorescence intensity as a function of pH
Description: Each of the probes AH1 and AH2 was dissolved in a universal buffer solution (0.1 M citric acid, 0.1 M KH2PO4, 0.1 M Na2B4O7, 0.1 M Tris, 0.1 M KCl 10 mM).
The fluorescence intensities of the probes AH1 and AH2 were measured, and titration curves thereof were plotted (FIG. 9). In FIG. 9, Y-axis represents the fluorescence intensity enhancement factor [(F−Fo)/Fo] (F is the fluorescence intensity and Fo is the minimum fluorescence intensity).
The pKa values were estimated from the fluorescence intensity measured as a function of the pH by using the relationship 1: log [(Imax−I)/(I−Imin)]=pH−pKa (1)
wherein I represents the fluorescence intensity, and Imax and Imin represent the maximum and minimum fluorescence intensity, respectively.

[3] = Water solubility from fluorescence intensity vs probe concentration; format: physicochemical; conditions: kinetic from dmso stock, H2O, 0.2% DMSO, read-out: solubility (maximum concentration in the linear region)
Description: Each of the probes AH1, AH2 and AL1 prepared in Examples 1-3 was dissolved in DMSO to prepare a stock solution (1.0×10^−3 M). The solution was diluted to […] and added to a cuvette containing 3.0 mL of H2O by using a micro syringe. In all cases, the concentration of DMSO in H2O was maintained to be 0.2%. The fluorescence intensity of the probe was measured as a function of the probe concentration.
Referring to FIG. 1, the fluorescence intensities of the probes increased in all wavelength bands with increasing probe concentration.
The plots (1b, 1d and 1f) have a profile in which the fluorescence intensity increases with increasing probe concentration.
Referring to the profile, the fluorescence intensity increases linearly until the dye concentration reaches a predetermined level. […] The maximum concentration in the linear region was taken as the solubility. The solubilities of the probes AH1, AH2, and AL1 were 5.0, 9.0, and 5.0 μM, respectively.

[4] = tested on: acidic vesicles in macrophages; experiment: Two-photon microscopy images of labeled macrophages, co-localized with LysoTracker Red OPM image; format: cell-based; conditions: TPM
Source text: TPM images of individual macrophages labeled with the probe AH2 of Example 2 were obtained (FIG. 3).
In contrast, the TPM images of the AH2-labeled macrophages emitted TPEF only at 500-620 nm (3b), and not at 360-460 nm (3a), which was attributed to the membrane-bound probe.
To unambiguously determine whether the intense red spots (3b) are indeed the acidic vesicles, the macrophages were stained With LYSOTRACKER™ Red (LTR), a well known one-photon fluorescent probe, and a one-photon micrography (OPM) image thereof was obtained (3c). The TPM image was co-localized with the OPM image (3d).
Acidic vesicles were imaged in the same manner as in Experimental Example 3-(1), except that the probe AH1 of Example 1 was used instead of the probe AH2 of Example 2.
Acidic vesicles were imaged in the same manner as in Experimental Example 3-(1), except that the probe AL1 of Example 3 was used instead of the probe AH2 of Example 2.

[5] = Two-photon action cross section by fs fluorescence measurement, fluorescein as reference; format: physicochemical; conditions: 780 nm
Description: The two-photon cross section (δ) was determined by using femto second (fs) fluorescence measurement technique.
Specifically, each of the probes AH1, AH2, AL1 and LYSOTRACKER™ Red (DND-99) was dissolved in a universal buffer (pH=3.2) at a concentration of 5.0×10^−6 M and then the two-photon induced fluorescence intensity was measured at 740-940 nm by using fluorescein (8.0×10^−6 M, pH=11) as the reference, whose two-photon property has been well characterized.
The intensities of the two-photon induced fluorescence spectra of the reference and the sample probe were measured, and the two-photon cross section of the sample probe was calculated according to Equation 2: […]
wherein the subscripts s and r represent the sample probe and the reference, respectively, δ represents the two-photon cross section of the sample probe, and S represents the intensity of the signal collected by a detector, Φ represents the fluorescence quantum yield, φ represents the overall fluorescence collection efficiency of the experimental apparatus, c represents the number density of the molecules in solution, and δr represents the two-photon cross section of the reference.
The two-photon action cross section of the sample probe was calculated by multiplying the two-photon cross section by the quantum yield.

Row | fluorescence intensity change with pH [2] | solubility [3] [µM] | pKa [2] | two-photon action cross section relative to LysoTracker Red [5] [fold] | two-photon action cross section (Φδ) ([5]; universal buffer pH 3.2, 5.0×10^−6 M) [GM] | SMILES | imaging of transportation of acidic vesicles ([1]; acute rat hippocampal slice, CA3 region, depth ~120 μm, 10 μM) | imaging of acidic vesicles in macrophages (TPEF at 500-620 nm, merged with LTR image) [4] | depth at which TPEF images were obtained ([1]; 400 μm hippocampal slices of 2-day-old rat, probe 10-20 μM) [μm]
1 | increased dramatically around pH 4-5 | 9 (≈ 3.4 µg/mL) | 4.18 ± 0.01 | 9 | – | COc1cc(NC(=O)CN(C)c2ccc3cc(C(C)=O)ccc3c2)ccc1N [AH2] | – | clearly capable of imaging the acidic vesicles | 250
2 | increased dramatically around pH 4-5 | 5 (≈ 1.74 µg/mL) | 4.42 ± 0.03 | 9 | – | CC(=O)c1ccc2cc(N(C)CC(=O)Nc3ccc(N)cc3)ccc2c1 [AH1] | – | clearly capable of imaging the acidic vesicles | –
3 | – | – | – | – | ~10 | CN(C)CCNC(=O)CCc1ccc2n1[B-](F)(F)[N+]1=C(c3ccc[nH]3)C=CC1=C2 [LYSOTRACKER™ Red (LTR), reference compound] | – | – | –

Row | SMILES | fluorescence intensity change with pH [2] | solubility [3] [µM] | pKa [2] | two-photon action cross section relative to LysoTracker Red [5] [fold] | two-photon action cross section (Φδ) ([5]; universal buffer pH 3.2, 5.0×10^−6 M) [GM] | imaging of transportation of acidic vesicles ([1]; acute rat hippocampal slice, CA3 region, depth ~120 μm, 10 μM) | imaging of acidic vesicles in macrophages (TPEF at 500-620 nm, merged with LTR image) [4] | depth at which TPEF images were obtained ([1]; 400 μm hippocampal slices of 2-day-old rat, probe 10-20 μM) [μm]
4 | CC(=O)c1ccc2cc(N(C)CC(=O)NCCN(C)C)ccc2c1 [AL1] | maintained at a substantially constant level despite changes in acidity | 5 (≈ 1.64 µg/mL) | – | – | – | can visualize the transportation of acidic vesicles in the CA3 region for a long period of time | clearly capable of imaging the acidic vesicles | –
